Experimental data reported in patent US11708318B2, “Polymorphic forms of RAD1901-2HCL” (Radius Pharmaceuticals, Inc., priority 2017, dated 2023).
Entries after “also recorded” stand apart in the source; their conditions may differ.

Legend:
[1] = Storage at elevated temperature/humidity, analysed by XRPD; assay type: physicochemical
[2] = Variable humidity XRPD (VH-XRPD); assay type: physicochemical
Procedure: Samples run under non-ambient conditions were prepared by gently packing into a cavity, cut into a silicon wafer to obtain a flat surface and mounted onto a humidity stage with an Ansyco controller and humidity sensor positioned directly next to the sample holder. The data were collected at 298.15 K with water temperature of 35.0° C., in an angular range of 3 to 31° 2θ, with a step size of 0.025° 2θ, a collection time of 2.0 sec/step, and a collection time at each % RH was 41 min 28 sec. X-Ray Powder Diffraction (XRPD) patterns were collected at variable humidity values from 0 to 95% RH, based upon the humidity behavior of each compound observed during GVS experiments (described herein). For each Variable Humidity X-Ray Powder Diffraction (VH-XRPD) experiment performed, the % RH values selected are provided alongside the relevant experimental result. Full tables of detailing the % RH value at each collection point and the associated delay time at each value are provided in Tables 10-12. To fully characterize the polymorphic behavior of Samples 1 and 2 at variable humidity, and to collect reference XRPD patterns for the ‘pure’ anhydrous Form 1 and Form 2 material, and ‘pure’ hydrated Form 3 material, Variable Humidity (VH) XRPD experiments were conducted on Samples 1 and 2. Initially, VH-XRPD experiments were conducted using Sample 1, and XRPD diffractograms were collected at selected humidity values, in line with those collected during GVS experiments (see FIGS. 6E-6F). XRPD diffractograms were collected initially at ambient RH, then collected over 24 hours at ˜95% RH and finally collected during desorption steps to 0% RH and over 10 hours at 0% RH (see FIG. 4C). […]

[3] = Gravimetric Vapour Sorption (GVS), with XRPD of the recovered sample; assay type: physicochemical
Procedure: Sorption isotherms were obtained using a SMS DVS Intrinsic moisture sorption analyzer, controlled by DVS Intrinsic Control software v1.0.1.2 (or v 1.0.1.3). The sample temperature was maintained at 25° C. by the instrument controls. The humidity was controlled by mixing streams of dry and wet nitrogen, with a total flow rate of 200 ml/min. The relative humidity was measured by a calibrated Rotronic probe (dynamic range of 1.0-100% RH), located near the sample. The weight change, (mass relaxation) of the sample as a function of % RH was constantly monitored by the microbalance (accuracy ±0.005 mg).
A sample (e.g., 20 mg) was placed in a tared mesh stainless steel basket under ambient conditions. The sample was loaded and unloaded at 40% RH and 25° C. (typical room conditions). A moisture sorption isotherm was performed as outlined below (2 scans giving 1 complete cycle). Standard isotherms were performed at 25° C. at 10% RH intervals over a 0-90% RH range. Data analysis was carried out using Microsoft Excel using DVS Analysis Suite v6.2 (or 6.1 or 6.0).
In a cycle of 2 scans, the first scan was performed with adsorption of 40-90% RH, followed by a second scan with desorption of 90-0% RH and adsorption of 0-40% RH, with intervals of 10% RH, at 25° C. with stability dm/dt of 0.002% ° C./min. The sorption time was 6 hr time out.
The sample was recovered after completion of the isotherm and re-analyzed by XRPD. Custom moisture sorption methods were also performed at 25° C. at fixed % RH intervals over a 0-95% RH range, with the purpose to fully understand the sorption/desorption behavior of the compound under elevated conditions.
To further explore the humidity behavior of Sample 1 (Form 1) upon exposure to high RH (>90%), custom GVS experiments were designed and carried out. Initially, the sample was treated by holding at 90 and then 95% RH for ˜12 hours to see if hydrate formation could be observed (HighRH method of Steps 1 and 2 of Table 2, FIGS. 6C-6D).
To test the stability of the hydrated state, GVS method HighRH_Desorp_3 was designed with a desorption step and subsequent adsorption (see Table 2 with steps 1-4, FIGS. 6E-6F).
Finally, to ensure complete conversion to the anhydrous and hydrated forms, a GVS experiment was designed to increase both the length of the desorption step at 0% RH, and the adsorption step at 95% RH, respectively (Table 3). Based on the weight stabilization observed in the kinetic plots for Sample 1 in HighRH and HighRH_Desorp_3 methods discussed above (FIGS. 6D and 6F), a holding time of 800 mins at 0% RH and 1600 mins at 95% RH were chosen. A double cycle was also recorded for this experiment to observe whether the sample would return to Form 1 or form a mixed anhydrous/hydrated species (see Table 3, FIGS. 6G-6H).

[4] = Storage at elevated temperature/humidity, analysed by XRPD; assay type: physicochemical; conditions: 1 week
Procedure: Samples 1 and 2 were characterized by XRPD at various conditions. XRPD patterns were collected for the samples at ambient condition as the samples were provided; at variable temperature (VT-XRPD); at variable humidity (VH-XRPD); after the samples were exposed to 40° C./75% RH for 1 week and 25° C./97% RH for 1 week, respectively; and after a GVS measurement wherein the samples were exposed to 0-90% RH. Samples 1 and 2 were also characterized by ^1H NMR, TGA, DSC, KF, IC, GVS (exposed to 0-90% RH), PLM, SEM, and HPLC (Table 5).

estrogen receptor (ER) = molecular target: T1, estrogen receptor (ER) (Homo sapiens, UniProt P03372); conditions: cited from earlier work
T1 sequence (P03372 1-595): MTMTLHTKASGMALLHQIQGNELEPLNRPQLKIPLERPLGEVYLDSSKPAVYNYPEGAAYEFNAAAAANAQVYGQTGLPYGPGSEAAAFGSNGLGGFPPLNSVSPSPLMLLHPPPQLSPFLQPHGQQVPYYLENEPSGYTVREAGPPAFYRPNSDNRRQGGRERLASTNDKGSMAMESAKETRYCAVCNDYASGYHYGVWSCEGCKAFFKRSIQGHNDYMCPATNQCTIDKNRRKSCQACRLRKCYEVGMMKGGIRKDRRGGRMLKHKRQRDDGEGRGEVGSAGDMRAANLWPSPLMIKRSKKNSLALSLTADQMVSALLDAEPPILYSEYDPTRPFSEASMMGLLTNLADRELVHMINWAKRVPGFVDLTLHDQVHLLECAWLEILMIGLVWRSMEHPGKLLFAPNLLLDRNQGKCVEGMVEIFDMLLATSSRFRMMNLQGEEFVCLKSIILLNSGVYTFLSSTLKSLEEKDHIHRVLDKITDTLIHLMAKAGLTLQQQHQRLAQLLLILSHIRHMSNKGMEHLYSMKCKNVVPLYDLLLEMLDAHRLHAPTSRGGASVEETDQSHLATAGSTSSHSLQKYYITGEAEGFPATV

## CCNCCc1ccc(CN(CC)c2cc(OC)ccc2[C@@H]2CCc3cc(O)ccc3C2)cc1.Cl.Cl [Lyophilization in water]
[1]; 25° C./97% RH
  XRPD post storage at 25° C./97% RH (10 days): Consistent with Form 3
[1]; 40° C./75% RH
  XRPD post storage at 40° C./75% RH (10 days): Consistent with Form 3

## CCNCCc1ccc(CN(CC)c2cc(OC)ccc2[C@@H]2CCc3cc(O)ccc3C2)cc1.Cl.Cl [Sample 2]
[2]; 0% RH
  VH-XRPD at 0% RH: 5E). Form 2 at 0% RH
[2]; >90% RH (92-93% RH recorded)
  VH-XRPD at high RH (>90%): conversion toward the hydrated state; also recorded: Conversion to Form 3
[3]; 0-90% RH
  Hygroscopicity (GVS): hygroscopic
[3]; after exposure to 0-90% RH
  XRPD post GVS (uptake 0-90% RH): mixture of Form 2 and Form 3; also recorded: Mixture of form 2 and 3
[4]; 25° C./97% RH
  XRPD after storage at 25° C./97% RH for 1 week: Form 3 (FIGS. 5B and
[4]; 40° C./75% RH
  XRPD after storage at 40° C./75% RH for 1 week: Form 3 (FIG. 5B)

## CCNCCc1ccc(CN(CC)c2cc(OC)ccc2[C@@H]2CCc3cc(O)ccc3C2)cc1 [RAD1901]
Estrogen receptor (ER)
  Selectivity of binding to the estrogen receptor (ER): good selectivity
